Data set [1] relates to Fusarium nivale (var. majus). In words: Fusarium nivale (var. majus)-test (wheat)/preventive. To be noted: preventive, evaluated 5 days after inoculation.
The nature of data set [2]: logP by HPLC on reversed-phase column (EEC Directive 79/831 Annex V.A8). To be noted: EEC Directive 79/831 Annex V.A8.
[3] abbreviates: HPLC on reversed-phase column (C 18).
Setting [4] is: HPLC on a reversed-phase column (C 18).

This passage reports Efficacy and logP results from patent US9375004B2 (Bayer Intellectual Property GmbH, priority 2010, dated 2016).

As usually defined, the logP is a log measure of how a compound divides between an organic and an aqueous phase. Read a high logP as higher lipophilicity.

Structures are written as SMILES.

Consider `Cn1cc(C(=O)Nc2ccccc2C2CC2C2CC2)c(C(F)F)n1` (stereo not drawn) [2.34 from WO-2003/074491, N-{2-[1,1′-bi(cyclopropyl)-2-yl]phenyl}-3-(difluoromethyl)-1-methyl-1H-pyrazole-4-carboxamide, reference compound], for which the Efficacy is listed as 57% in data set [1] (500 ppm) and “less than 60%” in data set [1] (500 ppm, listed as 2.34).
In the case of `CC(C)C1C2CCC1c1c(NC(=O)c3cn(C)nc3C(F)F)cccc12` (stereo not drawn) [15.202 (syn/anti 9/1) from WO-2004/035589] [3-(difluoromethyl)-N-(9-isopropyl-1,2,3,4-tetrahydro-1,4-methanonaphthalen-5-yl)-1-methyl-1H-pyrazole-4-carboxamide, reference compound], the Efficacy in data set [1] (250 ppm) and in data set [1] (500 ppm) was 50% each time.
As to `Cn1nc(C(F)F)c(C(=O)Nc2cccc3c2OCCO3)c1F` [compound 59], in data set [2] (setting [3]), the logP was 2.44.
The compound `CC(C)CCc1cc(F)ccc1NC(=O)c1c(C(F)F)nn(C)c1F` [Example 10] gave a logP in data set [2] (setting [3]) of 3.67.
Still for that read-out and setting: next, `Cn1nc(C(F)F)c(C(=O)Nc2ccccc2-c2ccc(OC(F)(F)F)cc2)c1Cl` [compound 144]: 4.19; `Cn1nc(C(F)F)c(C(=O)Nc2ccccc2-c2cc(F)cc(F)c2)c1Cl` [compound 92]: 3.55; `Cn1nc(C(F)F)c(C(=O)Nc2cccc(-c3ccc(Cl)cc3Cl)c2)c1Cl` [compound 230]: 4.39.
In data set [2] (setting [3]), `Cn1nc(C(F)F)c(C(=O)Nc2ccccc2OC(F)(F)C(F)F)c1F` [compound 29] displayed a logP of 3.08.
In data set [2] (setting [4]), `Cn1nc(C(F)F)c(C(=O)Nc2cccc(C#Cc3ccccc3)c2)c1F` [compound 249] returned a logP of 3.83.
On to `CC(C)Oc1cccc(-c2ccccc2NC(=O)c2c(C(F)F)nn(C)c2F)c1` [compound 111], for which the logP in data set [2] (setting [3]) was found to be 3.96.
The compound `CC(C)c1ccc(-c2ccccc2NC(=O)c2c(C(F)F)nn(C)c2F)cc1` [compound 96] showed a logP in data set [2] (setting [3]) of 4.44.
Take `Cn1nc(C(F)F)c(C(=O)Nc2ccccc2-c2cccc(OC(F)(F)F)c2)c1F` [compound 142]: the logP in data set [2] (setting [3]) stood at 3.83.
The same measure, in the same setting: with `CC(C)Oc1cc(NC(=O)c2c(C(F)F)nn(C)c2F)c(Cl)cc1Cl` [compound 172] the figure was 4.41; with `CC(C)=CCc1ccccc1NC(=O)c1c(C(F)F)nn(C)c1Cl` [compound 5], 3.35; with `CC(C)Oc1ccc(-c2cccc(NC(=O)c3c(C(F)F)nn(C)c3F)c2)cc1` [compound 223], 3.96.
The compound `Cc1ccccc1-c1cccc(NC(=O)c2c(C(F)F)nn(C)c2F)c1` [compound 201] had a logP in data set [2] (setting [3]) of 3.63.
As for `Cn1nc(C(F)F)c(C(=O)Nc2ccccc2-c2ccc([Si](C)(C)C)cc2)c1Cl` [compound 136], in data set [2] (setting [3]), the logP amounted to 5.39.
The compound `Cn1nc(C(F)F)c(C(=O)Nc2ccccc2Br)c1Cl` [compound 44] yielded a logP in data set [2] (setting [3]) of 3.13.
For the compound `Cn1nc(C(F)F)c(C(=S)Nc2ccccc2C2CC2C2CC2)c1Cl` (single isomer, unassigned) [Example 49], the logP in data set [2] (setting [3]) is given as 3.79.
In turn, `Cn1nc(C(F)F)c(C(=O)Nc2cccc(OCc3ccccc3)c2)c1Cl` [compound 253] displayed a lipophilicity (logP) in data set [2] (setting [4]) of 3.55.
Still for that read-out and setting: next, `Cn1nc(C(F)F)c(C(=O)Nc2cccc(Oc3ccccc3)c2)c1F` [compound 250]: 3.35.
In turn, `Cn1nc(C(F)F)c(C(=O)Nc2ccccc2OCc2ccccc2)c1F` [compound 158] yielded a logP in data set [2] (setting [3]) of 3.67.
In turn, `CCOCCOc1cc(NC(=O)c2c(C(F)F)nn(C)c2F)ccc1C` [compound 185] showed a logP in data set [2] (setting [3]) of 2.96.
With `Cn1nc(C(F)F)c(C(=O)Nc2ccc(-c3cc(Cl)cc(Cl)c3)cc2)c1F` [compound 266], in data set [2] (setting [4]), the logP was determined as 4.51.
Consider `CCCOc1cccc(NC(=O)c2c(C(F)F)nn(C)c2F)c1` [compound 175], for which the logP in data set [2] (setting [3]) came to 3.04.
